Laboratory results reported in patent publication EP2119770B1, “Production of alpha-oxyfunctionalized carbonyl compounds” (priority 2008, dated 2009).

Experiments:
Type in all cases: biochemical
Gox1615 = molecular target: T1, Gox1615 (Gluconobacter oxydans, UniProt Q5FQJ0); assay: Enzyme activity assay (rate of NAD(P)H decrease at 340 nm), Gox1615; conditions: 10 mM substrate; for Specific Activity: Tab. 5, Gox1615, cofactor NADPH, pH 7.0, 30 °C; for Activity: Table 3, Gox1615, K-phosphate buffer pH 7.0, 0.05 mM NAD(P)H, 30 °C
T1 sequence (Q5FQJ0 1-332): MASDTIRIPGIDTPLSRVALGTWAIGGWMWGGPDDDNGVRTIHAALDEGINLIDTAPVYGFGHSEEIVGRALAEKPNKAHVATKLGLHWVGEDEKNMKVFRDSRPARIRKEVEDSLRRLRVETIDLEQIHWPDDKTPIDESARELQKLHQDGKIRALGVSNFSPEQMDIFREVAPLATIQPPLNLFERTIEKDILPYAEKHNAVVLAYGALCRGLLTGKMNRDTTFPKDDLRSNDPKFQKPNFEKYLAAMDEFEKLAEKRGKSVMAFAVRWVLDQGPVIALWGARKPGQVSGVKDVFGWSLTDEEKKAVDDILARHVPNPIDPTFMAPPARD
Procedure, shortened: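 Purified enzymes assayed at 30 °C in 40 mM potassium phosphate pH 7.0 with 10 mM substrate and NAD(P)H (0.025 mM, or 0.05 mM in the standard mixture), started by adding enzyme or substrate. Activity followed as the rate of NAD(P)H decrease at 340 nm; one unit = 1 µmol pyridine nucleotide converted per min; protein measured by Bradford.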

Gox2684 = molecular target: T2, Gox2684 (Gluconobacter oxydans, UniProt Q5HXK5); assay: Enzyme activity assay (rate of NAD(P)H decrease at 340 nm), Gox2684; conditions: for activities: Gox2684, substrates with highest activities; for Specific Activities: Tab. 8, GOX2684, cofactor NADPH, 10 mM substrate, pH 7.0, 30 °C
T2 sequence (Q5HXK5 1-357): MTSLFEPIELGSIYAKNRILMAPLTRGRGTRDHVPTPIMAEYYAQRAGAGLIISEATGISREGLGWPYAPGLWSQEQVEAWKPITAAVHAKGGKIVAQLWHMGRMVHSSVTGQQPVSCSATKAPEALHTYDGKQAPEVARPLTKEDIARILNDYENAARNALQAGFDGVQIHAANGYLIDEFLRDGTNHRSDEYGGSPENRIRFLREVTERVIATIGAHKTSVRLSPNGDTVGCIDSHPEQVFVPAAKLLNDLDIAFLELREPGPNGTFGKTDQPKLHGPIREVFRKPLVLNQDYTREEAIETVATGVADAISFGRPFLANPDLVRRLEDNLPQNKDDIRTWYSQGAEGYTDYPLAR
Protocol: (§1) Measurment of enzyme activity: NADPH-dependent alpha-ketocarbonyl reductases were assayed by a routine method used for NAD(P)-linked enzymes by recording the rate of decrease of NADPH at 340 nm (ε = 6.22 mM^-1 x cm^-1)) with substrates at 30 °C. The reaction mixture (1 ml) for reduction of alpha-ketocarbonyl substrates contained 10 mM substrate, 40 mM potassium phosphate buffer pH 7.0, 0.025 mM NAD(P)H , and the enzyme. Reactions were induced by addition of enzyme or substrate. One unit of enzyme activity was defined as the amount of enzyme catalyzing the conversion of 1 µmol of pyridine nucleotide per min at 30 °C.
(§2) NADPH-dependent α-ketocarbonyl reductases were assayed by a routine method used for NAD(P)-linked enzymes by recording the rate of decrease of NADPH at 340 nm (ε = 6.22 mM^-1.cm^-1) with substrates at 30 °C. The reaction mixture (1 ml) for reduction of alpha-ketocarbonyl substrates contained 10 mM substrate, 40 mM potassium phosphate buffer pH 7.0, 0.025 mM NADPH , and the enzyme. Reactions were induced by addition of enzyme or substrate. One unit of enzyme activity was defined as the amount of enzyme catalyzing the conversion of 1 µmol of pyridine nucleotide per min at 30 °C.
(§3) For each enzyme (Gox0313, Gox0502, Gox0644, Gox0646, Gox1615, Gox2107, and Gox2684 respectively), fresh enzyme preparations were used to validate the substrate spectrum and the kinetic activity. […] Purified NAD(P)-dependent oxidoreductases were assayed at 30 °C by a routine method used for NAD(P)-linked enzymes by recording the rate of decrease of NAD(P)H at 340 nm (ε = […]) with substrates capable of reduction reactions. The standard reaction mixture (1 ml) for the reduction reactions of substrates contained 10 mM substrate, 40 mM potassium phosphate buffer (K-phosphate buffer) pH 7.0, 0.05 mM NAD(P)H, and the enzyme unless otherwise noted. Reactions were induced by addition of enzyme or substrate. One unit of enzyme activity was defined as the amount of enzyme catalyzing the conversion of 1 µmol of pyridine nucleotide per min at 30 °C. Measurement of the protein content was performed by the method of Bradford in Anal. Biochem. 72:248-254 (1976). Table 3: Summary of enzymatic activities with α-diketones, α-ketoaldehydes and /or α-ketoesters

Gox0646 = molecular target: T3, Gox0646 (Gluconobacter oxydans, UniProt Q5FT73); assay: Enzyme activity assay (rate of NAD(P)H decrease at 340 nm), Gox0646; conditions: 10 mM substrate; for Specific Activities: Tab. 9, GOX0646, cofactor NADPH, pH 7.0, 30 °C; for Activity: Table 3, Gox0646, K-phosphate buffer pH 7.0, 0.05 mM NAD(P)H, 30 °C
T3 sequence (Q5FT73 1-264): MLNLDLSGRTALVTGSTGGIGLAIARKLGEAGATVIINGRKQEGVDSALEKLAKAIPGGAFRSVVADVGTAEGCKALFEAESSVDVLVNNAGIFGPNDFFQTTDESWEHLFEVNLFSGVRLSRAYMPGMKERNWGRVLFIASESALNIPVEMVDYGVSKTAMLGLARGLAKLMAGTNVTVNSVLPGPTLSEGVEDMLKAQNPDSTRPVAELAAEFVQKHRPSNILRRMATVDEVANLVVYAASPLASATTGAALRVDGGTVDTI
Protocol: as §1, §2, §3

Gox0502 = molecular target: T4, Gox0502 (Gluconobacter oxydans, UniProt Q5FTL6); assay: Enzyme activity assay (rate of NAD(P)H decrease at 340 nm), Gox0502; set-up: Strep-tag II (N); made in house; host or cells: E. coli BL21 or E. coli DH5α (pASK-IBA5); conditions: 10 mM substrate; for Specific Activity: Tab. 7, Gox0502, cofactor NADPH, pH 7.0, 30 °C; for Activity: Table 3, Gox0502, K-phosphate buffer pH 7.0, 0.05 mM NAD(P)H, 30 °C
T4 sequence (Q5FTL6 1-361): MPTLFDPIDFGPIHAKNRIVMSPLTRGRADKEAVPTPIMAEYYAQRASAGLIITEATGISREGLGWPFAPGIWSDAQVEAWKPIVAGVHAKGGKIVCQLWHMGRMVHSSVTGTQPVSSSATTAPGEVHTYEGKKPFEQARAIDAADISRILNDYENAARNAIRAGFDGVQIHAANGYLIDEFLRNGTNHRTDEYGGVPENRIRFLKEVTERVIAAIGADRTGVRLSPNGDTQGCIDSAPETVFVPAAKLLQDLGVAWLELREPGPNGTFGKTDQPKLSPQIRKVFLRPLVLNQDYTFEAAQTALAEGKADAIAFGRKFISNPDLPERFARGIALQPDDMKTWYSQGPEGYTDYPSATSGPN
Protocol: as §1, §2, §3

SMILES	Specific Activity (Gox1615) [U/mg]	Activity (Gox1615) [U/mg]	activities (Gox2684) [U/mg protein]	Specific Activities (Gox2684) [U/mg]	Specific Activities (Gox0646) [U/mg]	Activity (Gox0646) [U/mg]	Specific Activity (Gox0502)	Activity (Gox0502) [U/mg]
CCCC(=O)C(C)=O [2,3-hexanedione]	6.5	6.5	2.3	2.3	8.0	8.0	1.0 U/mg	
CCC(=O)C(C)=O [2,3-pentanedione]	6.2	6.2		0.6	8.0	8.0		
CCC(=O)C(=O)CC [3,4-hexanedione]	2	2.0		0.6	2.0	2.0	2,0 U/mg	2.0
CC(=O)C=O [methylglyoxal]	19.3	19.3		1.4	0.2	0.2	1.5 U/mg	
O=CC(=O)c1ccccc1 [phenylglyoxal]	19.1	19.1	2.1	2.1			15.7 U/mg	15.7
